CCOc1nc2cccc(C(=O)OC(C)OC(=O)OC3CCCCC3)c2n1Cc1ccc(-c2ccccc2-c2nn[nH]n2)cc1 (stereo not given)
solubility (mole fraction)
Conditions	in 2-butanone	in acetone	in acetonitrile	in ethanol	in isopropanol	in n-propanol
278.15 K	0.00575	0.00383	0.00026	0.00055	0.00026	0.00062
283.15 K	0.00653	0.00467	0.00033	0.00066	0.00037	0.00079
288.15 K	0.00749	0.00566	0.00044	0.00086	0.00052	0.00098
293.15 K	0.0086	0.00673	0.00058	0.00103	0.0007	0.00132
298.15 K	0.01	0.00783	0.00071	0.0013	0.00093	0.00172
303.15 K	0.0118	0.00946	0.00091	0.00163	0.00128	0.00208
308.15 K	0.0138	0.0111	0.00127	0.00203	0.0017	0.00283
313.15 K	0.016	0.0133	0.00159	0.00271	0.00221	0.00373
318.15 K	0.019	0.0155	0.00195	0.00355	0.00298	0.00452
323.15 K	0.0224	0.0182	0.00263	0.00458	0.00391	0.0059
328.15 K	0.0264	–	0.00343	0.00573	0.00526	0.00759
333.15 K	0.031	–	0.00442	0.00772	0.00667	0.00977
